Experimental data: patent US11389456B2, “Compounds and methods for treating oxalate-related diseases” (OxaluRx, Inc., priority 2018, dated 2022)

Molecular target: recombinant full-length human hydroxyacid oxidase 1 (HAO1), the equivalent of hGOX (Homo sapiens (Human), UniProt Q9UJM8)
Test: In-vitro human glycolate oxidase (hGOX) assay (Amplex red/HRP fluorescence)
Assay type: biochemical
Details: 12.5 nM HAO1, 85 μM glycolate, 2.5% DMSO; read-out: IC50
Protocol: Biological Activity Assay: In-Vitro Human Glycolate Oxidase (hGOX) Assay
The in-vitro glycolate oxidase assay was performed using recombinant full-length human hydroxyacid oxidase 1 (HAO1), the equivalent of hGOX. […] Purified HAO1 was dissolved in assay buffer consisting of 10 mM NaCl, 110 mM KCl, 2 mM MgCl2, 50 mM HEPES (pH 7.4) and 0.01% Triton™ X-100.

recombinant full-length human hydroxyacid oxidase 1 (HAO1), the equivalent of hGOX, sequence (Q9UJM8 whole entry): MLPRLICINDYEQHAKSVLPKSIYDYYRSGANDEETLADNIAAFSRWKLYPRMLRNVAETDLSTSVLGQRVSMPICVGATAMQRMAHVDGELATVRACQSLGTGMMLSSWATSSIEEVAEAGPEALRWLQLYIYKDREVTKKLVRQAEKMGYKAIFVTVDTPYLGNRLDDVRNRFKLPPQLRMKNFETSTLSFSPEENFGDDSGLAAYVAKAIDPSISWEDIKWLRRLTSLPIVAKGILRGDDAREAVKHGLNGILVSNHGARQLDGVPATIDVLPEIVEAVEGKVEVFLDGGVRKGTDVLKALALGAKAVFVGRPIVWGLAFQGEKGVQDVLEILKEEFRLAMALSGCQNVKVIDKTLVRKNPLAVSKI

| Compound | IC50 [nM] |
| --- | --- |
| Cc1ccc(Sc2[nH]nnc2C(=O)O)c(C)c1 [Example I-009, 5-((2,4-Dimethylphenyl)thio)-1H-1,2,3-triazole-4-carboxylic acid] | 230 |
| COc1ccc(Sc2[nH]nnc2C(=O)O)cc1 [Example I-004, 5-((4-Methoxyphenyl)thio)-1H-1,2,3-triazole-4-carboxylic acid] | 140 |
| CCOC(=O)c1nn[nH]c1Sc1ccc(OC)cc1 [Example I-005, Ethyl 5-((4-Methoxyphenyl)thio)-1H-1,2,3-triazole-4-carboxylate] | > 500000 |
| CCOC(=O)c1nn[nH]c1Sc1ccccc1F [Example I-014, Ethyl 5-((2-fluorophenyl)thio)-1H-1,2,3-triazole-4-carboxylate] | 430000 |
| COc1ccc(Oc2[nH]nnc2C(=O)O)cc1 [Example I-035, 5-(4-Methoxyphenoxy)-1H-1,2,3-triazole-4-carboxylic acid] | 260 |
| Cc1ccccc1Sc1[nH]nnc1C(=O)O [Example I-010, 5-(o-Tolylthio)-1H-1,2,3-triazole-4-carboxylic acid] | 360 |
| O=C(O)c1nn[nH]c1Sc1ccccc1Cl [Example I-011, 5-((2-Chlorophenyl)thio)-1H-1,2,3-triazole-4-carboxylic acid] | 270 |
| O=C(O)c1nn[nH]c1Sc1ccc(Br)cc1 [Example I-007, 5-((4-Bromophenyl)thio)-1H-1,2,3-triazole-4-carboxylic acid] | 70 |
| COc1ccccc1Sc1[nH]nnc1C(=O)O [Example I-006, 5-((2-Methoxyphenyl)thio)-1H-1,2,3-triazole-4-carboxylic acid] | 2310 |
| Cc1ccc(Sc2[nH]nnc2C(=O)O)cc1 [Example I-003, 5-(p-Tolylthio)-1H-1,2,3-triazole-4-carboxylic acid] | 160 |
| O=C(O)c1nn[nH]c1Sc1nc2ccccc2s1 [Example I-032, 5-(Benzo[d]thiazol-2-ylthio)-1H-1,2,3-triazole-4-carboxylic acid] | 4860 |
| O=C(O)c1nn[nH]c1Sc1ccccc1F [Example I-013, 5-((2-Fluorophenyl)thio)-1H-1,2,3-triazole-4-carboxylic acid] | 200 |
| O=C(O)c1[nH]nnc1Sc1ccc(Cl)c(Cl)c1 [Example I-025, 5-((3,4-Dichlorophenyl)thio)-1H-1,2,3-triazole-4-carboxylic acid] | 43 |
| Cc1ccc(Oc2[nH]nnc2C(=O)O)cc1C [Example I-039, 5-(3,4-Dimethylphenoxy)-1H-1,2,3-triazole-4-carboxylic acid] | 56 |
| CCOC(=O)c1nn[nH]c1Sc1ccc(Br)cc1 [Example I-008, Ethyl 5-((4-bromophenyl)thio)-1H-1,2,3-triazole-4-carboxylate] | > 500000 |
| O=C(O)c1nn[nH]c1Sc1cccc(F)c1 [Example I-015, 5-((3-Fluorophenyl)thio)-1H-1,2,3-triazole-4-carboxylic acid] | 130 |
| CCOC(=O)c1nn[nH]c1Sc1ccccc1Cl [Example I-012, Ethyl 5-((2-chlorophenyl)thio)-1H-1,2,3-triazole-4-carboxylate] | 251000 |
| O=C(O)c1nn[nH]c1Sc1ccc(C(F)(F)F)cc1 [Example I-016, 5-((4-(Trifluoromethyl)phenyl)thio)-1H-1,2,3-triazole-4-carboxylic acid] | 820 |

Other lines, results leading:

| IC50 [nM] | Compound |
| --- | --- |
| 34 | CCc1ccc(Oc2[nH]nnc2C(=O)O)cc1 [Example I-298, 5-(4-Ethylphenoxy)-1H-1,2,3-triazole-4-carboxylic acid] |
| 27 | O=C(O)c1nn[nH]c1Oc1cccc(-c2ccc(OC(F)(F)F)c(F)c2)c1 [Example I-311, 5-((3′-Fluoro-4′-(trifluoromethoxy)-[1,1′-biphenyl]-3-yl)oxy)-1H-1,2,3-triazole-4-carboxylic acid] |
| 169 | COc1cc(OC)cc(-c2cccc(Oc3[nH]nnc3C(=O)O)c2)c1 [Example I-303, 5-((3′,5′-Dimethoxy-[1,1′-biphenyl]-3-yl)oxy)-1H-1,2,3-triazole-4-carboxylic acid] |
| > 500000 | CCOC(=O)c1nn[nH]c1Nc1ccc(OC)cc1 [Example I-289, Ethyl 5-((4-methoxyphenyl)amino)-1H-1,2,3-triazole-4-carboxylate] |
| 112 | CC(C)c1ccc(Oc2[nH]nnc2C(=O)O)cc1 [Example I-274, 5-(4-Isopropylphenoxy)-1H-1,2,3-triazole-4-carboxylic acid] |
| > 10000 | O=C(O)c1nn[nH]c1OCc1ccc(Br)cc1 [Example I-085, 5-((4-Bromobenzyl)oxy)-1H-1,2,3-triazole-4-carboxylic acid] |
| 79 | CCc1cccc(Oc2[nH]nnc2C(=O)O)c1 [Example I-295, 5-(3-Ethylphenoxy)-1H-1,2,3-triazole-4-carboxylic acid] |
| 230 | CC(C)c1cccc(Oc2[nH]nnc2C(=O)O)c1 [Example I-278, 5-(3-Isopropylphenoxy)-1H-1,2,3-triazole-4-carboxylic acid] |
| 34 | O=C(O)c1nn[nH]c1Oc1ccc(Cl)c(F)c1 [Example I-308, 5-(4-Chloro-3-fluorophenoxy)-1H-1,2,3-triazole-4-carboxylic acid] |
| > 500000 | CCOC(=O)c1nn[nH]c1Nc1ccc(C)cc1 [Example I-291, ethyl 5-(p-tolylamino)-1H-1,2,3-triazole-4-carboxylate] |
| 539 | O=C(O)c1nn[nH]c1Oc1cccc(N2CCOCC2)c1 [Example I-282, 5-(3-Morpholinophenoxy)-1H-1,2,3-triazole-4-carboxylic acid] |
| 33 | O=C(O)c1nn[nH]c1Oc1ccc(-c2cc(Cl)cc(Cl)c2)cc1 [Example I-300, 5-((3′,5′-Dichloro-[1,1′-biphenyl]-4-yl)oxy)-1H-1,2,3-triazole-4-carboxylic acid] |
| 3760 | Cc1ccc(Nc2[nH]nnc2C(=O)O)cc1 [Example I-292, 5-(p-Tolylamino)-1H-1,2,3-triazole-4-carboxylic acid] |
| 76 | CC(C)Cc1cccc(Oc2[nH]nnc2C(=O)O)c1 [Example I-296, 5-(3-Isobutylphenoxy)-1H-1,2,3-triazole-4-carboxylic acid] |
| 27 | O=C(O)c1nn[nH]c1Oc1ccc(F)c(Cl)c1 [Example I-309, 5-(3-Chloro-4-fluorophenoxy)-1H-1,2,3-triazole-4-carboxylic acid] |
| 222 | O=C(O)c1nn[nH]c1Oc1cccc(N2CCCCCC2)c1 [Example I-280, 5-(3-(Azepan-1-yl)phenoxy)-1H-1,2,3-triazole-4-carboxylic acid] |
| 6530 | COc1ccc(Nc2[nH]nnc2C(=O)O)cc1 [Example I-290, 5-((4-Methoxyphenyl)amino)-1H-1,2,3-triazole-4-carboxylic acid] |
| 1080 | COc1cc(OC)cc(-c2ccc(Oc3[nH]nnc3C(=O)O)cc2)c1 [Example I-301, 5-((3′,5′-Dimethoxy-[1,1′-biphenyl]-4-yl)oxy)-1H-1,2,3-triazole-4-carboxylic acid] |
| 4 | C#Cc1ccc(Oc2[nH]nnc2C(=O)O)cc1 [Example I-297, 5-(4-Ethynylphenoxy)-1H-1,2,3-triazole-4-carboxylic acid] |
| 360 | O=C(O)c1nn[nH]c1Oc1ccccc1 [Example I-057, 5-Phenoxy-1H-1,2,3-triazole-4-carboxylic acid] |
| 172 | O=C(O)c1nn[nH]c1Oc1cccc(N2CCCC2)c1 [Example I-283, 5-(3-(Pyrrolidin-1-yl)phenoxy)-1H-1,2,3-triazole-4-carboxylic acid] |
| 74 | O=C(O)c1nn[nH]c1Oc1cccc(C2CC2)c1 [Example I-293, 5-(3-Cyclopropylphenoxy)-1H-1,2,3-triazole-4-carboxylic acid] |
| 370 | O=C(O)c1nn[nH]c1Oc1cccc(N2CCCCC2)c1 [Example I-281, 5-(3-(Piperidin-1-yl)phenoxy)-1H-1,2,3-triazole-4-carboxylic acid] |
| 61 | Cc1cc(Oc2[nH]nnc2C(=O)O)ccc1F [Example I-306, 5-(4-Fluoro-3-methylphenoxy)-1H-1,2,3-triazole-4-carboxylic acid] |
| 5 | O=C(O)c1nn[nH]c1Oc1ccc(-c2ccc(OC(F)(F)F)c(F)c2)cc1 [Example I-310, 5-((3′-Fluoro-4′-(trifluoromethoxy)-[1,1′-biphenyl]-4-yl)oxy)-1H-1,2,3-triazole-4-carboxylic acid] |
| 89 | C=Cc1cccc(Oc2[nH]nnc2C(=O)O)c1 [Example I-284, 5-(3-Vinylphenoxy)-1H-1,2,3-triazole-4-carboxylic acid] |
| 88 | O=C(O)c1[nH]nnc1Oc1ccc(F)c(F)c1 [Example I-307, 5-(3,4-Difluorophenoxy)-1H-1,2,3-triazole-4-carboxylic acid] |
| 2 | O=C(O)c1nn[nH]c1Oc1cccc(-c2ccc3c(c2)OCO3)c1 [Example I-305, 5-(3-(Benzo[d][1,3]dioxol-5-yl)phenoxy)-1H-1,2,3-triazole-4-carboxylic acid] |
